This assay has as its system female NOD mice. Briefly: Spontaneous autoimmune diabetes in non-obese diabetic (NOD) mouse model. The assay is classed as in vivo. From the text:
Treatment of spontaneous autoimmune diabetes in non-obese diabetic (NOD) mouse model. The NOD model is used as an animal model for human type 1 diabetes. The NOD mouse strain spontaneously develops autoimmune (type 1) diabetes by a process that has similarities to human type 1 diabetes mellitus, e.g., immune-mediated selective destruction of the pancreatic islet 13-cells that produce insulin (M. A. Atkinson and N. K. Maclaren, New England J. Medicine, 331:1428-1436 1994). There is a higher incidence of diabetes (i.e., hyperglycemia, glucosuria, and hypoinsulinemia) in female vs. male NOD mice (80-90% vs. 10-20%, respectively). Disease incidence in this animal model is first observed at approximately 12 to 15 weeks of age with maximum incidence usually peaking 5 to 6 weeks later.
Methods. An oral formulation containing 17α-ethynylandrost-5-ene-3β,7β,17β-triol in 30% w/v β-cyclodextrin sulfobutyl ether sodium salt (Captisol®; CyDex, Inc., Overland Park, Kans.) was used. Six-week old female NOD mice (approximately 20-25 grams) were purchased from The Jackson Laboratories (Bar Harbor, Me.) and housed in a vivarium under pathogen-free conditions. The animals were acclimated for at least one week prior to initiation of oral dosing with 17α-ethynylandrost-5-ene-3β,7β,17β-triol. Animals were randomized into 5 per cage upon receipt and cages were subsequently randomized into dosing groups.
Female NOD mice were treated once daily with vehicle, 17α-ethynylandrost-5-ene-3β,7β,17β-triol (20 or 80 mg/kg in 100 μL, p.o.), or dexamethasone (0.25 mg/kg, 100 μL, i.p.) from 15 to 25 weeks of age (i.e., before the first incidence of diabetes; at the University of Catania), from 13 to 19 weeks of age (2 days after the first incidence of diabetes), or from 12 to 26 weeks of age (9 days after the first incidence of diabetes). Blood glucose was monitored using glucometers (ENCORE Glucometer, Bayer Corp., Elkhart, Ind.) at weekly intervals, beginning at 10 weeks of age. Mice with blood glucose levels 200 mg/dL on two consecutive occasions were considered diabetic. The percentage of animals with diabetes over the course of the experiment was monitored.
Histological assessment of insulitis and functional 13-cell content was assessed at the time of disease diagnosis or at the end of the 26-week study (i.e., disease-free mice). Pancreata (after CO2 euthanasia) were immediately isolated and placed in 10% buffered formalin at room temperature overnight, and then embedded in paraffin. After de-paraffinizing, pancreas samples were rehydrated and 5 μm sections were prepared and fixed on glass slides. Some sections were stained with hematoxylin and eosin (H&E) while others were stained with anti-insulin antibody as follows; prepared sections were immersed in Tris-Buffered Saline (TBS: 10 mM Tris buffer, pH 7.4, 0.15 M NaCl) containing 1% of bovine serum albumin (BSA) and 5% normal goat serum for 2 h at room temperature followed by incubation with 2 μg/mL rat anti-insulin IgG2a monoclonal antibody (MAB1417; R&D Systems, Minneapolis, Minn.) in TBS/1% BSA overnight at 4° C. in a humidified chamber. After washing with TBS/0.5 Tween-20, sections were covered with biotinylated anti-rat IgG secondary antibody (BD biosciences, 1:1,000) for 1 h at room temperature, followed by washing with TBS/Tween-20 and incubation with streptavidin-horseradish peroxidase for 30 min. Sections were then incubated with chromogen substrate, DAB (BD Biosciences), for 5 min and counterstained with hematoxylin. The degree of insulitis (leukocyte infiltration per islet; H&E) and functional 13-cell content per islet (insulin production) was scored using a scale of 0 to 3 in which 0=none, 1=few, 2=moderate, 3=high content of inflammatory cells or functional β-cells. Pancreata that were scored were obtained from a randomly-selected portion of mice from each cohort and scores were reported as the mean±SEM for each cohort.

The mark [1] stands for this setting: dexamethasone 0.25 mg/kg i.p. once daily.
[2] abbreviates: dexamethasone 0.25 mg/kg i.p. once daily, scale of 0 to 3.

In the case of `C[C@@H]1C[C@H]2[C@@H]3CCC4=CC(=O)C=C[C@]4(C)[C@@]3(F)[C@@H](O)C[C@]2(C)[C@@]1(O)C(=O)CO` [dexamethasone, reference compound], under setting [1], the “Disease Incidence” value is listed as 0.20 ± 0.20 and the “No. Islets/pancreas (H&E)” value is reported as 8.2 ± 6.3. In addition, under setting [2], the “Insulitis Score/Islet (H&E)” value came to 2.0 ± 0.6 and the “β-Cell Score/Islet (Insulin)” value is recorded as 2.3 ± 0.3. In addition, under “week 19, once daily treatment from 15 to 25 weeks of age (vehicle 25%)”, the “first incidence of diabetes” value is 0%.
